In assay [1] the target is T1, hPAD4 enzyme (Homo sapiens, UniProt Q9UM07). The experiment in a line: RFMS Assay 2 (rapid-fire mass spectrum PAD4 inhibition assay, peptide substrate). Type of assay: biochemical. As to conditions: 35 nM recombinant human PAD4, substrate TSTGGRQGSHH, room temperature for 30 minutes; read-out: human PAD4 (hPAD4) IC50, RFMS Assay 2. The method in brief: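 Recombinant human PAD4 (35 nM) reacted 30 min at room temperature with 500 µM peptide TSTGGRQGSHH in pH 7.4 HEPES, 200 mM NaCl, 2 mM CaCl2, 5 mM DTT, 1.2% DMSO. Quenched with formic acid; substrate and citrullinated product quantified by RapidFire MRM mass spectrometry.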
T1 sequence (Q9UM07 whole entry): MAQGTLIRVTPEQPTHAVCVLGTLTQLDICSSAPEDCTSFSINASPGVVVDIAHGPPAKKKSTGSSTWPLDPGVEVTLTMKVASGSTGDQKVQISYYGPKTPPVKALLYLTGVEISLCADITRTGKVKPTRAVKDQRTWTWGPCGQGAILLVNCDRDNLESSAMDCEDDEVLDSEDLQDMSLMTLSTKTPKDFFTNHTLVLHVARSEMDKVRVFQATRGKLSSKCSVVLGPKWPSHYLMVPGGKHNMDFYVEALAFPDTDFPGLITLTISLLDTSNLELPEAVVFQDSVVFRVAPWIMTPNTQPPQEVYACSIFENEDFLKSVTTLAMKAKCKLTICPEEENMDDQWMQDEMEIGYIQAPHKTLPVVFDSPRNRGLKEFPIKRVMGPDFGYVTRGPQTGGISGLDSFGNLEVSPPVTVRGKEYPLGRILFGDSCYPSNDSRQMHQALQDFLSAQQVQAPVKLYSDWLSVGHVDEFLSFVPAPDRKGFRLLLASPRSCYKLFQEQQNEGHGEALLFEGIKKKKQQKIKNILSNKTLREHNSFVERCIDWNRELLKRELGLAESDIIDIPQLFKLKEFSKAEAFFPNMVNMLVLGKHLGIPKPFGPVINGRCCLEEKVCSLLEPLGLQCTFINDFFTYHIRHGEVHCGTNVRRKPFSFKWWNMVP

Assay [2] addresses T1, hPAD4 enzyme. As to the kind of experiment: RFMS Assay 1 (rapid-fire mass spectrum PAD4 inhibition assay, BAEE substrate). Conditions: 5 nM hPAD4 enzyme, 250 μM BAEE, 30 mins compound and enzyme preincubation at 37° C., 90 min enzyme/substrate reaction. It is filed as biochemical. The gist of the method: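 Human PAD4 (5 nM) preincubated 30 min at 37 °C with compound (top 50 μM, 0.5% DMSO), then 250 μM BAEE for 90 min at 37 °C in pH 7.5 HEPES with 50 μM calcium, 5 μM TPEN, 1 mM DTT. Product derivatized with phenyl glyoxal; citrulline product quantified by RapidFire MS/MS MRM, normalized to internal standard.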

Structures are written as SMILES. A value given as a limit tells only on which side of the number the result lay.

On to `COc1cccc2cc(-c3nc4cc5c(nc4n3C)CCN(C[C@H](N)CF)C5=O)n(Cc3ccno3)c12` [Example 7, (S)-7-(2-amino-3-fluoropropyl)-2-(1-(isoxazol-5-ylmethyl)-7-methoxy-1H-indol-2-yl)-3-methyl-3,5,6,7-tetrahydro-8H-imidazo[4,5-b][1,6]naphthyridin-8-one], for which the IC50 lay within 0.101 to 0.5 µM in assay [1] and 0.011 to 0.1 µM in assay [2].

`COc1cccc2cc(-c3nc4cc5c(nc4n3C)CCN(C[C@H](N)CF)C5=O)n(CC3(F)CC3)c12` [Example 15, (S)-7-(2-amino-3-fluoropropyl)-2-(1-((1-fluorocyclopropyl)methyl)-7-methoxy-1H-indol-2-yl)-3-methyl-3,5,6,7-tetrahydro-8H-imidazo[4,5-b][1,6]naphthyridin-8-one]: the IC50 in assay [1] was 0.101 to 0.5 µM; in assay [2], 0.011 to 0.1 µM.

Consider `Cn1c(-c2cc3ccc(C(C)(C)O)nc3n2CC2CC2)nc2cc3c(nc21)CCN(C[C@H](N)CF)C3=O` [Example 33, (S)-7-(2-amino-3-fluoropropyl)-2-(1-(cyclopropylmethyl)-6-(2-hydroxypropan-2-yl)-1H-pyrrolo[2,3-b]pyridin-2-yl)-3-methyl-3,5,6,7-tetrahydro-8H-imidazo[4,5-b][1,6]naphthyridin-8-one], for which the 50% inhibitory concentration (IC50) fell in the range of 0.501 to 1 µM in assay [1] and 0.011 to 0.1 µM in assay [2].

As for `Cn1c(-c2cc3cccc(OC[C@@H]4CNC(=O)C4)c3n2CC2CC2)nc2cc3c(nc21)CCN(C[C@H](N)CF)C3=O` [Example 59, 7-((S)-2-amino-3-fluoropropyl)-2-(1-(cyclopropylmethyl)-7-(((S)-5-oxopyrrolidin-3-yl)methoxy)-1H-indol-2-yl)-3-methyl-3,5,6,7-tetrahydro-8H-imidazo[4,5-b][1,6]naphthyridin-8-one], the half-maximal inhibitory concentration (IC50) in assay [1] and in assay [2] was 0.011 to 0.1 µM throughout.

As to `COc1c(F)ccc2cc(-c3nc4cc5c(nc4n3C)CCN(C[C@H](N)CF)C5=O)n(Cc3ccno3)c12` [Example 23, (S)-7-(2-amino-3-fluoropropyl)-2-(6-fluoro-1-(isoxazol-5-ylmethyl)-7-methoxy-1H-indol-2-yl)-3-methyl-3,5,6,7-tetrahydro-8H-imidazo[4,5-b][1,6]naphthyridin-8-one], the half-inhibitory concentration (IC50) in assay [1] fell in the range of 0.501 to 1 µM; in assay [2], 0.011 to 0.1 µM.

Take `COc1cccc2cc(-c3nc4cc5c(nc4n3C)CCN(C[C@H](N)CF)C5=O)n(Cc3ncc(C)o3)c12` [Example 11, (S)-7-(2-amino-3-fluoropropyl)-2-(7-methoxy-1-((5-methyloxazol-2-yl)methyl)-1H-indol-2-yl)-3-methyl-3,5,6,7-tetrahydro-8H-imidazo[4,5-b][1,6]naphthyridin-8-one]: the IC50 in assay [1] and in assay [2] was 0.101 to 0.5 µM each time.

Consider `Cn1c(-c2cc3cccc(OCCc4cnco4)c3n2CC2CC2)nc2cc3c(nc21)CCN(C[C@H](N)CF)C3=O` [Example 41, (S)-7-(2-amino-3-fluoropropyl)-2-(1-(cyclopropylmethyl)-7-(2-(oxazol-5-yl)ethoxy)-1H-indol-2-yl)-3-methyl-3,5,6,7-tetrahydro-8H-imidazo[4,5-b][1,6]naphthyridin-8-one], for which the IC50 in assay [1] was 0.011 to 0.1 µM; in assay [2], ≤ 0.01 µM.

Regarding `Cc1cn(CCOc2cccc3cc(-c4nc5cc6c(nc5n4C)CCN(C[C@H](N)CF)C6=O)n(CC4CC4)c23)cn1` [Example 72, (S)-7-(2-amino-3-fluoropropyl)-2-(1-(cyclopropylmethyl)-7-(2-(4-methyl-1H-imidazol-1-yl)ethoxy)-1H-indol-2-yl)-3-methyl-3,5,6,7-tetrahydro-8H-imidazo[4,5-b][1,6]naphthyridin-8-one], the concentration for half-maximal inhibition (IC50) in assay [1] lay in the range of 0.101 to 0.5 µM; in assay [2] it was 0.011 to 0.1 µM.

With `Cn1c(-c2cc3cccc(OCCn4cnc(F)c4)c3n2CC2CC2)nc2cc3c(nc21)CCN(C[C@H](N)CF)C3=O` [Example 70, (S)-7-(2-amino-3-fluoropropyl)-2-(1-(cyclopropylmethyl)-7-(2-(4-fluoro-1H-imidazol-1-yl)ethoxy)-1H-indol-2-yl)-3-methyl-3,5,6,7-tetrahydro-8H-imidazo[4,5-b][1,6]naphthyridin-8-one], the IC50 is 0.011 to 0.1 µM in assay [1] and ≤ 0.01 µM in assay [2].

What is called IC50 is the concentration needed to halve the response being measured.

The values are drawn from patent US20250353848A1, “HETEROCYCLIC PAD4 INHIBITORS” (Celgene Corporation, priority 2022, published 2025).
